In patent US20260085077A1, “HETEROCYCLIC DERIVATIVES AS JANUS KINASE INHIBITORS” (CHIESI FARMACEUTICI S.P.A., priority 2022, published 2026):

Each molecule was assayed on IL-13 induced pSTAT6 in BEAS-2B human cell line (assay: Inhibition of IL-13 induced pSTAT6 in BEAS). Conditions: IL-13 induced pSTAT6, BEAS-2B cells, ELISA.
Assay type: cell-based
Description: BEAS-2B human cell line was seeded (100.000 cells/well) and incubated for 48 h at 37° C., 5% CO2, 95% humidity. Compounds were added and incubated 30 min followed by IL-13 as trigger. After 30 min incubation, cells were lysed and pSTAT6 determined by Fastscan phospho-stat6 (Tyr641) sandwich ELISA kit (cell signaling). Inhibitors were tested at 11 consecutive […] dilutions starting from 10 μM (10 μM-40 pM) in duplicate. Calculation of IC50 data, curves and QC analysis were made using Excel tools and GraphPadPrism software. QC criteria parameters: Z′≥0.35, Hill Slope range 0.5 to 5, S:B>2.

| Compound | IC50 [nM] |
| --- | --- |
| COc1cc2c(cc1-n1nc(C(=O)NCCN3CC4(CCOCC4)C3)c3cnc(-c4cnn5cccnc45)cc31)OCCN2 [Example 48, N-(2-(7-oxa-2-azaspiro[3.5]nonan-2-yl)ethyl)-1-(6-methoxy-3,4-dihydro-2H-benzo[b][1,4]oxazin-7-yl)-6-(pyrazolo[1,5-a]pyrimidin-3-yl)-1H-pyrazolo[4,3-c]pyridine-3-carboxamide] | < 5.01 |
| COc1cc2c(cc1-n1nc(C(=O)NCCN3CCCC4(COC4)C3)c3cnc(-c4cnn5cccnc45)cc31)OCCN2 [Example 49, N-(2-(2-oxa-6-azaspiro[3.5]nonan-6-yl)ethyl)-1-(6-methoxy-3,4-dihydro-2H-benzo[b][1,4]oxazin-7-yl)-6-(pyrazolo[1,5-a]pyrimidin-3-yl)-1H-pyrazolo[4,3-c]pyridine-3-carboxamide] | 5.01 to 50.1 |
| COc1cc2c(cc1-n1nc(C(=O)NCCN3C[C@H]4COC(=O)[C@H]4C3)c3cnc(-c4cnn5cccnc45)cc31)OCCN2 [Example 50, 1-(6-methoxy-3,4-dihydro-2H-benzo[b][1,4]oxazin-7-yl)-N-(2-((3aS,6aR)-1-oxotetrahydro-1H-furo[3,4-c]pyrrol-5(3H)-yl)ethyl)-6-(pyrazolo[1,5-a]pyrimidin-3-yl)-1H-pyrazolo[4,3-c]pyridine-3-carboxamide] | 5.01 to 50.1 |
| COc1cc2c(cc1-n1nc(C(=O)NCCN3CCC4(CC3)COC(=O)C4)c3cnc(-c4cnn5cccnc45)cc31)OCCN2 [Example 51, 1-(6-methoxy-3,4-dihydro-2H-benzo[b][1,4]oxazin-7-yl)-N-(2-(3-oxo-2-oxa-8-azaspiro[4.5]decan-8-yl)ethyl)-6-(pyrazolo[1,5-a]pyrimidin-3-yl)-1H-pyrazolo[4,3-c]pyridine-3-carboxamide] | < 5.01 |
| COc1cc2c(cc1-n1nc(C(=O)NCCN3CCC4(CCOC4=O)CC3)c3cnc(-c4cnn5cccnc45)cc31)OCCN2 [Example 52, 1-(6-methoxy-3,4-dihydro-2H-benzo[b][1,4]oxazin-7-yl)-N-(2-(1-oxo-2-oxa-8-azaspiro[4.5]decan-8-yl)ethyl)-6-(pyrazolo[1,5-a]pyrimidin-3-yl)-1H-pyrazolo[4,3-c]pyridine-3-carboxamide] | < 5.01 |
| COc1cc2c(cc1-n1nc(C(=O)NCCN3CCC(C(=O)N(C)C)CC3)c3cnc(-c4cnn5cccnc45)cc31)OCCN2 [Example 53, N-(2-(4-(dimethylcarbamoyl)piperidin-1-yl)ethyl)-1-(6-methoxy-3,4-dihydro-2H-benzo[b][1,4]oxazin-7-yl)-6-(pyrazolo[1,5-a]pyrimidin-3-yl)-1H-pyrazolo[4,3-c]pyridine-3-carboxamide] | 5.01 to 50.1 |
| COc1cc2c(cc1-n1nc(NCCN(C)C)c3cnc(-c4cnn5cccnc45)cc31)OCCN2 [Example 54, N1-(1-(6-methoxy-3,4-dihydro-2H-benzo[b][1,4]oxazin-7-yl)-6-(pyrazolo[1,5-a]pyrimidin-3-yl)-1H-pyrazolo[4,3-c]pyridin-3-yl)-N2,N2-dimethylethane-1,2-diamine] | 5.01 to 50.1 |
| CNc1nn(-c2cc3c(cc2OC)NCCO3)c2cc(-c3cnn4cccnc34)ncc12 [Example 55, 1-(6-methoxy-3,4-dihydro-2H-benzo[b][1,4]oxazin-7-yl)-N-methyl-6-(pyrazolo[1,5-a]pyrimidin-3-yl)-1H-pyrazolo[4,3-c]pyridin-3-amine] | 5.01 to 50.1 |
| COC(=O)Nc1nn(-c2cc3c(cc2OC)NCCO3)c2cc(-c3cnn4cccnc34)ncc12 [Example 56, methyl (1-(6-methoxy-3,4-dihydro-2H-benzo[b][1,4]oxazin-7-yl)-6-(pyrazolo[1,5-a]pyrimidin-3-yl)-1H-pyrazolo[4,3-c]pyridin-3-yl)carbamate] | 5.01 to 50.1 |
| COc1cc2c(cc1-n1nc(NC(=O)OCCN(C)C)c3cnc(-c4cnn5cccnc45)cc31)OCCN2 [Example 57, 2-(dimethylamino)ethyl (1-(6-methoxy-3,4-dihydro-2H-benzo[b][1,4]oxazin-7-yl)-6-(pyrazolo[1,5-a]pyrimidin-3-yl)-1H-pyrazolo[4,3-c]pyridin-3-yl)carbamate] | 5.01 to 50.1 |
| COc1cc2c(cc1-n1nc(NC(=O)OCCN3CCOCC3)c3cnc(-c4cnn5cccnc45)cc31)OCCN2 [Example 58, 2-morpholinoethyl (1-(6-methoxy-3,4-dihydro-2H-benzo[b][1,4]oxazin-7-yl)-6-(pyrazolo[1,5-a]pyrimidin-3-yl)-1H-pyrazolo[4,3-c]pyridin-3-yl)carbamate] | 5.01 to 50.1 |
| COc1cc2c(cc1-n1nc(NC(=O)OCCCN3CCN(C)CC3)c3cnc(-c4cnn5cccnc45)cc31)OCCN2 [Example 59, 3-(4-methylpiperazin-1-yl)propyl (1-(6-methoxy-3,4-dihydro-2H-benzo[b][1,4]oxazin-7-yl)-6-(pyrazolo[1,5-a]pyrimidin-3-yl)-1H-pyrazolo[4,3-c]pyridin-3-yl)carbamate] | 5.01 to 50.1 |
| COc1cc2c(cc1-n1nc(NC(=O)OCCCN(C)C)c3cnc(-c4cnn5cccnc45)cc31)OCCN2 [Example 60, 3-(dimethylamino)propyl (1-(6-methoxy-3,4-dihydro-2H-benzo[b][1,4]oxazin-7-yl)-6-(pyrazolo[1,5-a]pyrimidin-3-yl)-1H-pyrazolo[4,3-c]pyridin-3-yl)carbamate] | 5.01 to 50.1 |
| COc1cc2c(cc1-n1nc(NC(=O)OCCCN3CCOCC3)c3cnc(-c4cnn5cccnc45)cc31)OCCN2 [Example 61, 3-morpholinopropyl (1-(6-methoxy-3,4-dihydro-2H-benzo[b][1,4]oxazin-7-yl)-6-(pyrazolo[1,5-a]pyrimidin-3-yl)-1H-pyrazolo[4,3-c]pyridin-3-yl)carbamate] | 5.01 to 50.1 |
| COc1cc2c(cc1-n1nc(NC(=O)OCCN3CCS(=O)(=O)CC3)c3cnc(-c4cnn5cccnc45)cc31)OCCN2 [Example 62, 2-(1,1-dioxidothiomorpholino)ethyl (1-(6-methoxy-3,4-dihydro-2H-benzo[b][1,4]oxazin-7-yl)-6-(pyrazolo[1,5-a]pyrimidin-3-yl)-1H-pyrazolo[4,3-c]pyridin-3-yl)carbamate] | 5.01 to 50.1 |
| COc1cc2c(cc1-n1nc(NC(=O)OCCN3CCN(C)CC3)c3cnc(-c4cnn5cccnc45)cc31)OCCN2 [Example 63, 2-(4-methylpiperazin-1-yl)ethyl (1-(6-methoxy-3,4-dihydro-2H-benzo[b][1,4]oxazin-7-yl)-6-(pyrazolo[1,5-a]pyrimidin-3-yl)-1H-pyrazolo[4,3-c]pyridin-3-yl)carbamate] | 5.01 to 50.1 |
| COc1cc2c(cc1-n1nc(NC(=O)OCCN3CCSCC3)c3cnc(-c4cnn5cccnc45)cc31)OCCN2 [Example 64, 2-thiomorpholinoethyl (1-(6-methoxy-3,4-dihydro-2H-benzo[b][1,4]oxazin-7-yl)-6-(pyrazolo[1,5-a]pyrimidin-3-yl)-1H-pyrazolo[4,3-c]pyridin-3-yl)carbamate] | 5.01 to 50.1 |
| COc1cc2c(cc1-n1nc(NC(=O)OC[C@@H]3CN(C)CCO3)c3cnc(-c4cnn5cccnc45)cc31)OCCN2 [Example 65, (S)-(4-methylmorpholin-2-yl)methyl (1-(6-methoxy-3,4-dihydro-2H-benzo[b][1,4]oxazin-7-yl)-6-(pyrazolo[1,5-a]pyrimidin-3-yl)-1H-pyrazolo[4,3-c]pyridin-3-yl)carbamate] | 5.01 to 50.1 |
| COc1cc2c(cc1-n1nc(NC(=O)OCCN3CCCCC3)c3cnc(-c4cnn5cccnc45)cc31)OCCN2 [Example 66, 2-(piperidin-1-yl)ethyl (1-(6-methoxy-3,4-dihydro-2H-benzo[b][1,4]oxazin-7-yl)-6-(pyrazolo[1,5-a]pyrimidin-3-yl)-1H-pyrazolo[4,3-c]pyridin-3-yl)carbamate] | 5.01 to 50.1 |
| COc1cc2c(cc1-n1nc(NC(=O)OCCSC3CCOC3=O)c3cnc(-c4cnn5cccnc45)cc31)OCCN2 (stereo not shown) [Example 67, 2-((2-oxotetrahydrofuran-3-yl)thio)ethyl (1-(6-methoxy-3,4-dihydro-2H-benzo[b][1,4]oxazin-7-yl)-6-(pyrazolo[1,5-a]pyrimidin-3-yl)-1H-pyrazolo[4,3-c]pyridin-3-yl)carbamate] | 5.01 to 50.1 |
| COc1cc2c(cc1-n1nc(NC(=O)OCCNC3CCOC3=O)c3cnc(-c4cnn5cccnc45)cc31)OCCN2 (stereo not shown) [Example 68, 2-((2-oxotetrahydrofuran-3-yl)amino)ethyl (1-(6-methoxy-3,4-dihydro-2H-benzo[b][1,4]oxazin-7-yl)-6-(pyrazolo[1,5-a]pyrimidin-3-yl)-1H-pyrazolo[4,3-c]pyridin-3-yl)carbamate] | 5.01 to 50.1 |
| COc1cc2c(cc1-n1nc(NC(=O)OCCN(C)C)c3cnc(-c4cnn5cccnc45)cc31)CCCN2 [Example 69, 2-(dimethylamino)ethyl (1-(7-methoxy-1,2,3,4-tetrahydroquinolin-6-yl)-6-(pyrazolo[1,5-a]pyrimidin-3-yl)-1H-pyrazolo[4,3-c]pyridin-3-yl)carbamate] | 5.01 to 50.1 |
| COc1cc2c(cc1-n1nc(NC(=O)NCCCN3CCOCC3)c3cnc(-c4cnn5cccnc45)cc31)OCCN2 [Example 70, 1-(1-(6-methoxy-3,4-dihydro-2H-benzo[b][1,4]oxazin-7-yl)-6-(pyrazolo[1,5-a]pyrimidin-3-yl)-1H-pyrazolo[4,3-c]pyridin-3-yl)-3-(3-morpholinopropyl)urea] | 5.01 to 50.1 |
| COc1cc2c(cc1-n1nc(C)c3cnc(-c4cnn5cccnc45)cc31)C1(CC1)C(=O)N2 [Example 71, 6′-methoxy-5′-(3-methyl-6-(pyrazolo[1,5-a]pyrimidin-3-yl)-1H-pyrazolo[4,3-c]pyridin-1-yl)spiro[cyclopropane-1,3′-indolin]-2′-one] | 5.01 to 50.1 |
| COc1cc2[nH]c(=O)oc2cc1-n1nc(NCCN2CCOCC2)c2cnc(-c3cnn4cccnc34)cc21 [Example 72, 5-methoxy-6-(3-((2-morpholinoethyl)amino)-6-(pyrazolo[1,5-a]pyrimidin-3-yl)-1H-pyrazolo[4,3-c]pyridin-1-yl)benzo[d]oxazol-2(3H)-one] | 50.1 to 501 |
